Calls of active or inactive are those of the source.
What was measured:
[1] = NIH-3T3 fibroblast cytotoxicity, dose response, cytotoxicity control, cell-based, fluorescence, Alamar Blue, secondary assay (AID 2327); assay type: functional;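 note: NIH-3T3 mouse fibroblasts cultured with fluconazole at 8 µg/mL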
[2] = molecular target: T1, Aminopeptidase N (Plasmodium falciparum FcB1/Columbia, UniProt O96935); assay: P. falciparum M1AAP inhibitors, biochemical, fluorogenic H-Leu-NHMec substrate, 1536-well (AID 1445); parameters: species or system Plasmodium falciparum 3D7, 3D7
T1 sequence (O96935 whole entry): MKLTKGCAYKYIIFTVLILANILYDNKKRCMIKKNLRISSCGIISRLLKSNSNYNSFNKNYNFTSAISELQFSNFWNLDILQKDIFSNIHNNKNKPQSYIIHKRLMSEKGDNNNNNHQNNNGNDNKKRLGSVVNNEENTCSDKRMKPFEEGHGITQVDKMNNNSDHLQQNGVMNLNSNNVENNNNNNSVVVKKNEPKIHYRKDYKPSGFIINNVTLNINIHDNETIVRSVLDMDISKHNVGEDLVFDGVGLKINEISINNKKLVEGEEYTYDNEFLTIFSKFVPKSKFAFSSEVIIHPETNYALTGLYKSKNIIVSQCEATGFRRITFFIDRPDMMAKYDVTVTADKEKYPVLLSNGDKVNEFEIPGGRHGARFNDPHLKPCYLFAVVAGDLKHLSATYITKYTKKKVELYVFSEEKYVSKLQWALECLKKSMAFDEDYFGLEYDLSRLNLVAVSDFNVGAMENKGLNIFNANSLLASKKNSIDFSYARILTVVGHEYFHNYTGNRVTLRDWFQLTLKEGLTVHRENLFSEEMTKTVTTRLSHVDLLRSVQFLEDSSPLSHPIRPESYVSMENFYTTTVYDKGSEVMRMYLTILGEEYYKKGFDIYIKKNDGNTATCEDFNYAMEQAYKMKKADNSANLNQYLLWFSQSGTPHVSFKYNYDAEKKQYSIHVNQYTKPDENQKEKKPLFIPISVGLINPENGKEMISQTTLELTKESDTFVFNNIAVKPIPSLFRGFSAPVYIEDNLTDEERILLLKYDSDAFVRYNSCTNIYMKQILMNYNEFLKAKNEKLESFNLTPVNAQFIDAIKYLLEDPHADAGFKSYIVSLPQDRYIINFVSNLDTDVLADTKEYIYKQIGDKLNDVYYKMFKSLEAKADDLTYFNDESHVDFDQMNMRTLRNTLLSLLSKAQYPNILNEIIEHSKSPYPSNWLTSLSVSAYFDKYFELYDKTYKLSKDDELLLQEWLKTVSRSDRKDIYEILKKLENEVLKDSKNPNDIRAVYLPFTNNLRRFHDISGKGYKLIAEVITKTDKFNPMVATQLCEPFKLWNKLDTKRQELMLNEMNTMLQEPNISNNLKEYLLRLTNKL

[3] = growth suppression of PTEN-null colon cells, dose response, cell-based, HCT116 PTEN knockout (AID 1047); assay type: functional;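 note: HCT116 colon tumor cells with PTEN knocked out; cells exposed to compound for 60 hours before readout; potency for loss of cell viability measured by luminescence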
[4] = growth suppression of beta-catenin-knockout colon cells, dose response, cell-based, HCT116, human colon tumor (AID 1045); assay type: functional;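 note: HCT116 colon tumor cells with beta catenin knocked out; cells exposed to compound for 60 hours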
[5] = molecular target: Luciferin 4-monooxygenase (Photinus pyralis, UniProt P08659); assay: firefly luciferase enzyme inhibitors, dose response, biochemical, luminescence (AID 1891)
[6] = Luminescence Cell-Based Dose Confirmation HTS to Identify Inhibitors of Platelet Dense Granule Release. [Related pubchem assays: 1663 (Primary HTS), 1678 (Summary of Project)]; assay type: functional
[7] = molecular target: T2, Replicative DNA helicase DnaB (Mycobacterium tuberculosis, UniProt P9WMR3); assay: DnaB intein splicing inhibitors, dose response, biochemical, cell-free fluorescence (AID 449749); assay type: functional
T2 sequence (P9WMR3 whole entry): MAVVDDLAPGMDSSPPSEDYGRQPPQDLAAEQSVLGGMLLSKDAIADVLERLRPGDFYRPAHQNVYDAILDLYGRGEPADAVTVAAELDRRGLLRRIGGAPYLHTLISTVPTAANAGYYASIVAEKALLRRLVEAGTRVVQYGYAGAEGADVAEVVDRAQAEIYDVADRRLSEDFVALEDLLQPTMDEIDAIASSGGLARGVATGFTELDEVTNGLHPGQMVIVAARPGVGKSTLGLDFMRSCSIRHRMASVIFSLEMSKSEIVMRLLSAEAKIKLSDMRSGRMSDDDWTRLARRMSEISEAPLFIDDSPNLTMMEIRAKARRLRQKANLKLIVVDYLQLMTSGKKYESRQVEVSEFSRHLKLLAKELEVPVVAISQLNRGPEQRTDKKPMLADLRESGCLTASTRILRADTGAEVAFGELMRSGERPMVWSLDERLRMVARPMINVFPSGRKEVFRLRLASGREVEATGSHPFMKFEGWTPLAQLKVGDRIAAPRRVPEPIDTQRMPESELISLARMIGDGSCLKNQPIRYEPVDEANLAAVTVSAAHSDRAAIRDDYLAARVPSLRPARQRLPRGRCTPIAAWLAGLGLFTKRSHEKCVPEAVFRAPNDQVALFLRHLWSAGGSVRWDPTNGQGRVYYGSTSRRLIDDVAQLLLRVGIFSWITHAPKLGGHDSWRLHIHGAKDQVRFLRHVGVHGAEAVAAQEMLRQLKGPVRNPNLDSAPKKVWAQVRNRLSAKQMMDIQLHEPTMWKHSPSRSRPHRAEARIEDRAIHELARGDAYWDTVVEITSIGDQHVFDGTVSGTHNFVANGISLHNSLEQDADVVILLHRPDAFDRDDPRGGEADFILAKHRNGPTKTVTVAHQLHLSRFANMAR

[8] = molecular target: T3, Protein RecA (Mycobacterium tuberculosis, UniProt P9WHJ3); assay: Fluorescence Cell-Free Homogeneous Dose Retest to Identify Inhibitors of RecA-Intein Splicing Activity. [Related pubchem assays (depositor defined):AID2097, AID2223, AID489010, AID492950]; assay type: functional
T3 sequence (P9WHJ3 whole entry): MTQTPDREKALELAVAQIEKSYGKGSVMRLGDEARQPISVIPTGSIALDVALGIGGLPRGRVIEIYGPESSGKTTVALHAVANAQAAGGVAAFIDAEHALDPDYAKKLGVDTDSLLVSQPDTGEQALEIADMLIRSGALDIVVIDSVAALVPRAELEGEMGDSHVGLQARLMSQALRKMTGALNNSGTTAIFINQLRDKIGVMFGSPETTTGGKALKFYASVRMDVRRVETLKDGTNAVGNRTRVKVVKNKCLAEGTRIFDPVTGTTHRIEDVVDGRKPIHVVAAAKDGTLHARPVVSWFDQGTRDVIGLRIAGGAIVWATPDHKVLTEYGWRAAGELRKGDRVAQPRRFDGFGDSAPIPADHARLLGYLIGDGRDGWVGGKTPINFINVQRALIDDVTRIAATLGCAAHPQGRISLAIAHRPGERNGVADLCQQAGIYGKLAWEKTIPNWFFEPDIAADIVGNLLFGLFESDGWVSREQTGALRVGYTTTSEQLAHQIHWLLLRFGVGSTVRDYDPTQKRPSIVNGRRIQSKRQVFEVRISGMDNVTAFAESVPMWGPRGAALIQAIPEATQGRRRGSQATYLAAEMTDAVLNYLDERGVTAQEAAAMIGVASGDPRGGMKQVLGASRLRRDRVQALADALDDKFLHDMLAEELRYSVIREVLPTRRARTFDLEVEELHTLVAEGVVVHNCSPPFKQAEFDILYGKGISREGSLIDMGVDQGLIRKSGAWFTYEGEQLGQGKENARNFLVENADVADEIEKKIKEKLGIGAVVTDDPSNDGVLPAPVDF

[9] = molecular target: Nonstructural protein 1 (Influenza A virus, UniProt Q194T2); assay type: functional, Influenza A virus (A/California/07/2009(H1N1))
[10] = inhibitors of HIV Env-driven cell fusion, dose response, cherry-pick (AID 652057); assay type: functional, cell-based
[11] = test system: Vero; assay: cells; assay type: functional; details: Chlorocebus sabaeus
[12] = Shn3 3'UTR reporter inhibitors, dose response, cell-based, Clone20 osteoblasts, firefly luciferase, cherry-picked (AID 624132); assay type: functional;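 note: firefly luciferase luminescence from reporter carrying the Shn3 3'UTR in osteoblasts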
[13] = P. falciparum Dd2 growth inhibitors, dose response, SYBR Green, cherry-picked samples (AID 1159567); assay type: functional, cell-based
[14] = test system: BJ; assay: cytotoxicity toward BJ-TERT fibroblasts, dose response, cell-based, RAS-independent, luminescence (AID 1933); assay type: functional; details: Homo sapiens
[15] = test system: BJ; assay: cells; assay type: functional, cell-based; details: Homo sapiens
[16] = test system: BJ; assay: cytotoxicity toward BJ-TERT-LT-ST fibroblasts, dose response, cell-based, RAS-independent, luminescence (AID 1935); assay type: functional; details: Homo sapiens;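 note: BJ fibroblasts immortalized with TERT plus LT and ST oncogenes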
[17] = cytotoxicity toward DRD oncogenic fibroblasts, dose response, cell-based, non-viral oncogenic, luminescence (AID 1934); assay type: functional; details: Homo sapiens

Sequence of Luciferin 4-monooxygenase (P08659 whole entry): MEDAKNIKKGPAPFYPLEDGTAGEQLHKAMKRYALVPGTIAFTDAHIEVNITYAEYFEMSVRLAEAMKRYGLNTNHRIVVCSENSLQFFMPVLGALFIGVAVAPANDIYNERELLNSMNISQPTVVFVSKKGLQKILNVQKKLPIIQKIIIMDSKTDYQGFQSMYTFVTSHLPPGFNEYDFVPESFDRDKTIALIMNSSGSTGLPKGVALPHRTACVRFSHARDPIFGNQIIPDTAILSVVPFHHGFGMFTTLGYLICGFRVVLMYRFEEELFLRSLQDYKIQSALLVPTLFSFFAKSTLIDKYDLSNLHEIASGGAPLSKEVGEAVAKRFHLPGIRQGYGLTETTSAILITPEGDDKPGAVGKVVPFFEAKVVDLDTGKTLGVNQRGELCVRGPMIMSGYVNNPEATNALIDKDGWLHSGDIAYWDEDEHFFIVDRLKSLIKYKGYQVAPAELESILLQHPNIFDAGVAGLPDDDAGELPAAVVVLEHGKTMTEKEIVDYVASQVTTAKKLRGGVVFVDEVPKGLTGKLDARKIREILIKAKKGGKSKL
Sequence of Nonstructural protein 1 (Q194T2 whole entry, the tested form may be a part): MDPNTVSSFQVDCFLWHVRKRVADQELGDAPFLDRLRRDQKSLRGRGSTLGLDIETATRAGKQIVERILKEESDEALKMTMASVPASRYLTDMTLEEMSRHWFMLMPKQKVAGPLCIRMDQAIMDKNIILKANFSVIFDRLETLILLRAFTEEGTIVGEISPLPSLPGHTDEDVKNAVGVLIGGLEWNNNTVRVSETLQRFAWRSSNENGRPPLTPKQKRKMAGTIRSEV

SMILES: CC(=O)Nc1cccc(NC(=O)C2CCCN2C(=O)Nc2ccc(Cl)cc2)c1 (stereo not drawn)
- EC50 [1]: > 160 µM (inactive)
- IC50 [2]: 84.1 µM (active)

SMILES: COc1ccc(C(=O)Nc2ccccc2C(=O)N(Cc2ccco2)C(C(N)=O)C(C)C)cc1 (stereo not drawn)
- EC50 [3]: 6.76 µM (active)
- EC50 [4]: 9.3 µM (active)

SMILES: Cc1ccc2nc(NC(=O)CN3C(=O)NC4(CCCC4)C3=O)sc2c1
- EC50 [5]: 80 µM (active)
- EC50 [6]: > 112 µM (not active)

SMILES: COc1cc(C(c2sc3nc(C)nn3c2O)N2CCOCC2)cc(OC)c1OC (stereo not drawn)
- EC50 [5]: > 112 µM (not active)
- EC50 [6]: 18.6 µM (active)

SMILES: COc1cc(/C=C2\C(=O)N(c3ccc(NC(C)=O)cc3)N=C2c2ccccc2)ccc1O
- AC50 [7]: > 380 µM (inactive)
- EC50 [8]: > 380 µM (inconclusive)

SMILES: C/C(CC(=O)Nc1cc(C)ccn1)=N\NC(=O)c1cccc(C)c1
- AC50 [7]: 9.58 µM (active)
- EC50 [8]: 4.04 µM (active)

SMILES: COc1cc(OC)c(-c2nnc3n(CCc4ccccc4)c(=O)c4ccccc4n23)cc1OC
- EC50 [5]: > 112 µM (not active)
- EC50 [6]: > 112 µM (not active)

SMILES: O=C(CNCc1ccccn1)Nc1ccc([N+](=O)[O-])cc1C(=O)Nc1ccccc1F
- IC50 [9]: 5.49 µM (active)

SMILES: C[C@H](CO)N1C[C@H](C)[C@H](CN(C)S(=O)(=O)c2ccc(C#N)cc2)Oc2ncc(/C=C/c3ccccc3)cc2C1=O
- AC50 [10]: 7.61 µM (active)

SMILES: CCOc1ccccc1N1CC(C(=O)Nc2nccs2)CC1=O (stereo not drawn)
- EC50 [5]: > 112 µM (not active)
- EC50 [6]: > 112 µM (not active)

SMILES: CC(=O)N1N=C(c2c(-c3ccccc3)c3cc(Br)ccc3[nH]c2=O)CC1c1ccco1 (stereo not drawn)
- IC50 [2]: 58.8 µM (active)

SMILES: O=C(/C=C/c1ccc(Cl)cc1Cl)c1cccnc1
- EC50 [3]: 7.26 µM (active)
- EC50 [4]: 5.09 µM (active)
- CC50 [11]: > 25 µM (active)

SMILES: Cc1cc(N(C)N)nc(NC(=O)NS(=O)(=O)c2ccccc2Cl)n1
- IC50 [9]: 5.96 µM (active)

SMILES: CC(C)(C)C(=O)Nc1cc(S(=O)(=O)N2CCCCC2)ccc1N1CCCCC1
- AC50 [12]: 23.1 µM (active)

SMILES: CC1CCCCN1S(=O)(=O)c1ccc(C(=O)Nc2ccccc2-c2nc3ccccc3[nH]2)cc1 (stereo not drawn)
- EC50 [3]: 17 µM (active)
- EC50 [4]: 25.5 µM (active)

SMILES: COc1cccc(-c2ccc3c(c2)[C@H]2[C@H](CCN2C(=O)C2CCCCC2)[C@@H](CO)N3)c1
- AC50 [13]: 4.95 µM (active)

SMILES: CCC(C)(C)NC(=O)CN(Cc1ccc2c(c1)OCO2)C(=O)CCC(=O)Nc1ccccn1
- IC50 [2]: 67 µM (active)

SMILES: O=C(Nc1ccc(-c2nc3ccccc3o2)cc1)C1CCCO1 (stereo not drawn)
- EC50 [5]: 2.6 µM (active)
- EC50 [6]: 2.58 µM (active)

SMILES: O=C1Nc2ccccc2Nc2ncccc21
- EC50 [5]: > 112 µM (not active)
- EC50 [6]: > 112 µM (not active)

SMILES: CCCOc1ccc(/C=N/Nc2ccccc2[N+](=O)[O-])c(O)c1
- EC50 [14]: 11.3 µM (active)
- EC50 [15]: 12.2 µM (active)
- EC50 [16]: > 150 µM (inconclusive)
- EC50 [17]: 10.1 µM (active)

SMILES: CCCc1nnc(NC(=O)CCC(=O)N2CCN(Cc3ccc(OC)c(F)c3)CC2)s1
- EC50 [14]: 25.9 µM (active)
- EC50 [15]: > 150 µM (inconclusive)
- EC50 [16]: > 150 µM (not active)
- EC50 [17]: > 150 µM (not active)

SMILES: COc1ccccc1C(=O)N1CCN(c2cccc(Cl)c2)CC1
- EC50 [14]: 1.79 µM (active)
- EC50 [15]: 38.6 µM (inconclusive)
- EC50 [16]: 0.833 µM (inconclusive)
- EC50 [17]: 1.37 µM (active)

SMILES: COc1cc(/C=C/C(=O)c2cccc([N+](=O)[O-])c2)cc(OC)c1OC
- EC50 [3]: 3.46 µM (active)
- EC50 [4]: 2.7 µM (active)

SMILES: CC1(C)Cc2c(sc3nc(-c4cccs4)n(N)c(=O)c23)CO1
- EC50 [3]: 16.7 µM (active)
- EC50 [4]: 23.9 µM (active)
